Source: article PMC8968748 (Journal of medicinal chemistry, 2021)
Where two headings read alike, the source gives them in different places.

Assays:
IDH1 R132H = IDH1 R132H (Homo sapiens, UniProt O75874, R132H); experiment: diaphorase/resazurin-coupled mIDH1 R132H enzyme assay; format: biochemical; settings: for IC50: average of N = 3, reported only where ≥75% inhibition at 38 μM; for mIDH1 inhibitory activity: R132H and R132C mIDH1, Table 2 is an image; for fold improvement in potency compared to analog 70: mIDH1 R132H, relative to 70; for IDH1 R132H IC50 Fold improvement over 87: relative to compound 87
IDH1 R132H, sequence (O75874 whole entry R132H): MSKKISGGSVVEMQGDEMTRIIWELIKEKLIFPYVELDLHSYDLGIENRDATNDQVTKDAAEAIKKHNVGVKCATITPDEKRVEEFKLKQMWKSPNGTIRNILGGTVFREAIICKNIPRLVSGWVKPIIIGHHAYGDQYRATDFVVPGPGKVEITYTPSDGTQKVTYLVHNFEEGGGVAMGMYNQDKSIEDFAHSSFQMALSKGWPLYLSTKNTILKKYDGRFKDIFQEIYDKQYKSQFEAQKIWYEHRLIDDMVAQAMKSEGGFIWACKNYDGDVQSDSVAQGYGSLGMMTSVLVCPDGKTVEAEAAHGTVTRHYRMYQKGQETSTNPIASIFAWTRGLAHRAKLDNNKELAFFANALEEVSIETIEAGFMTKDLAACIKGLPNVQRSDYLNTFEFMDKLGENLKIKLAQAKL

[1] = Parallel artificial membrane permeability assay; format: in vitro ADME; settings: pH 7.4
IDH1 R132C = IDH1 R132C (Homo sapiens, UniProt O75874, R132C); experiment: diaphorase/resazurin-coupled mIDH1 R132C enzyme assay; format: biochemical; settings: for IDH1 R132C IC50 Fold improvement over 87: relative to compound 87
IDH1 R132C, sequence (O75874 whole entry R132C): as the sequence (O75874 whole entry R132H) above, with H132C counted along it

## 3-(4-(4-Chlorophenyl)thiazol-2-yl)-1-(2-ethyl-6-methylphenyl)-6-(2-methylprop-1-en-1-yl)-5-(piperazine-1-carbonyl)pyridin-2(1H)-one [Compound 115]
IDH1 R132H; read-out: IDH1 R132H IC50(μM) ± SD
  IC50: 0.27 µM

## CCc1ccc(OC)cc1-n1c(C=C(C)C)c(C(=O)N2CCNCC2)cc(-c2nc(-c3ccc(Cl)cc3)cs2)c1=O (mixture of isomers) [Compound 118, 3-(4-(4-Chlorophenyl)thiazol-2-yl)-1-(2-ethyl-5-methoxyphenyl)-6-(2-methylprop-1-en-1-yl)-5-(piperazine-1-carbonyl)pyridin-2(1H)-one]
[1]
  PAMPA (10^−6 cm/s): 549 10^−6 cm/s

## CCc1ccc(OC)cc1-n1c(C=C(C)C)c(C(=O)N2CCNCC2)cc(-c2nc(-c3ccc(Cl)cc3)cs2)c1=O (single isomer, unassigned) [(−)-118]
IDH1 R132H; IDH1 R132H IC50(μM) ± SD
  IC50: 0.42 ± 0.05 µM

## CCc1ccc(Cl)cc1-n1c(C=C(C)C)c(C(=O)N2CCNCC2)cc(-c2nc(-c3ccc(Cl)cc3)cs2)c1=O (single isomer, unassigned) [(−)-119]
IDH1 R132H; IDH1 R132H IC50(μM) ± SD
  IC50: 0.25 ± 0.04 µM

## COc1ccc(OC)c(-n2cccc(-c3nc(-c4ccc(Cl)cc4)cs3)c2=O)c1 [Compound 2, 3-(4-(4-Chlorophenyl)thiazol-2-yl)-1-(2,5-dimethoxyphenyl)pyridin-2(1H)-one]
IDH1 R132H
  mIDH1 inhibitory activity: completely inactive

## COc1ccc(OC)c(-n2c(C)ccc(-c3nc(-c4ccc(Cl)cc4)cs3)c2=O)c1 [Compound 3, 3-(4-(4-Chlorophenyl)thiazol-2-yl)-1-(2,5-dimethoxyphenyl)-6-methylpyridin-2(1H)-one]
IDH1 R132H
  mIDH1 inhibitory activity: completely inactive

## COc1ccc(OC)c(-n2c3c(cc(-c4nc(-c5ccccc5)cs4)c2=O)C(=O)CC(C)(C)C3)c1 [Compound 11, 1-(2,5-Dimethoxyphenyl)-7,7-dimethyl-3-(4-phenylthiazol-2-yl)-7,8-dihydroquinoline-2,5(1H,6H)-dione]
IDH1 R132H
  mIDH1 inhibitory activity: essentially equipotent to 1 against R132H mIDH1

## COc1ccc(OC)c(-n2c3c(cc(-c4cccc(-c5ccc(Cl)cc5)c4)c2=O)C(=O)CC(C)(C)C3)c1 [Compound 23, 3-(4’-Chloro-[1,1’-biphenyl]-3-yl)-1-(2,5-dimethoxyphenyl)-7,7-dimethyl-7,8-dihydroquinoline-2,5(1H,6H)-dione]
IDH1 R132H
  mIDH1 inhibitory activity: complete loss in mIDH1 inhibitory activity

## COc1ccc(OC)c(-n2c3c(cc(-c4ccc(-c5ccccc5)cc4)c2=O)C(=O)CC(C)(C)C3)c1 [Compound 24, 3-([1,1’-Biphenyl]-4-yl)-1-(2,5-dimethoxyphenyl)-7,7-dimethyl-7,8-dihydroquinoline-2,5(1H,6H)-dione]
IDH1 R132H
  mIDH1 inhibitory activity: complete loss in mIDH1 inhibitory activity

## COc1ccc(OC)c(-n2c3c(cc(-c4cccc(-c5ccc(Cl)cc5)n4)c2=O)C(=O)CC(C)(C)C3)c1 [Compound 25, 3-(6-(4-Chlorophenyl)pyridin-2-yl)-1-(2,5-dimethoxyphenyl)-7,7-dimethyl-7,8-dihydroquinoline-2,5(1H,6H)-dione]
IDH1 R132H
  mIDH1 inhibitory activity: retained some activity

## CCOc1ccccc1-n1c2c(cc(-c3nc(-c4ccc(Cl)cc4)cs3)c1=O)C(=O)CC(C)(C)C2 [Compound 29, 3-(4-(4-Chlorophenyl)thiazol-2-yl)-1-(2-ethoxyphenyl)-7,7-dimethyl-7,8-dihydroquinoline-2,5(1H,6H)-dione]
IDH1 R132H; IDH1 R132H IC50(μM) ± SD
  IC50: 0.51 ± 0.03 µM

## CC(c1ccccc1)n1c2c(cc(-c3nc(-c4ccc(Cl)cc4)cs3)c1=O)C(=O)CC(C)(C)C2 (stereo not drawn) [Compound 48, 3-(4-(4-Chlorophenyl)thiazol-2-yl)-7,7-dimethyl-1-(1-phenylethyl)-7,8-dihydroquinoline-2,5(1H,6H)-dione]
IDH1 R132H; IDH1 R132H IC50(μM) ± SD
  IC50: > 38 µM
IDH1 R132C; read-out: IDH1 R132C % inhibition ± SD at 38 μM
  inhibition at 38 µM: 34 ± 1%

## COc1cc(C(=O)O)ccc1-n1c2c(cc(-c3nc(-c4ccc(Cl)cc4)cs3)c1=O)C(=O)CC(C)(C)C2 [Compound 57, 4-(3-(4-(4-Chlorophenyl)thiazol-2-yl)-7,7-dimethyl-2,5-dioxo-5,6,7,8-tetrahydroquinolin-1(2H)-yl)-3-methoxybenzoic acid]
IDH1 R132H; IDH1 R132H IC50(μM) ± SD
  IC50: > 38 µM

## CCc1cccc(CC)c1-n1c(C)c(C(=O)NCCO)cc(-c2nc(-c3ccc(Cl)cc3)cs2)c1=O [Compound 75, 5-(4-(4-Chlorophenyl)thiazol-2-yl)-1-(2,6-diethylphenyl)-N-(2-hydroxyethyl)-2-methyl-6-oxo-1,6-dihydropyridine-3-carboxamide]
IDH1 R132H
  fold improvement in potency compared to analog 70: 3 fold

## CCc1cccc(CC)c1-n1c(C)c(C(=O)NCCN)cc(-c2nc(-c3ccc(Cl)cc3)cs2)c1=O [Compound 78, N-(2-Aminoethyl)-5-(4-(4-chlorophenyl)thiazol-2-yl)-1-(2,6-diethylphenyl)-2-methyl-6-oxo-1,6-dihydropyridine-3-carboxamide]
IDH1 R132H
  fold improvement in potency compared to analog 70: 3 fold

## CCCc1c(C(=O)N2CCNCC2)cc(-c2nc(-c3ccc(Cl)cc3)cs2)c(=O)n1-c1c(CC)cccc1CC [Compound 89, 3-(4-(4-Chlorophenyl)thiazol-2-yl)-1-(2,6-diethylphenyl)-5-(piperazine-1-carbonyl)-6-propylpyridin-2(1H)-one]
IDH1 R132H
  IDH1 R132H IC50 Fold improvement over 87: 2.8 fold
[1]
  PAMPA (10^−6 cm/s): 134 10^−6 cm/s
IDH1 R132C
  IDH1 R132C IC50 Fold improvement over 87: 15 fold

## CCc1cccc(CC)c1-n1c(CC(C)C)c(C(=O)N2CCNCC2)cc(-c2nc(-c3ccc(Cl)cc3)cs2)c1=O [Compound 91, 3-(4-(4-Chlorophenyl)thiazol-2-yl)-1-(2,6-diethylphenyl)-6-isobutyl-5-(piperazine-1-carbonyl)pyridin-2(1H)-one]
IDH1 R132H
  IDH1 R132H IC50 Fold improvement over 87: 1.9 fold
[1]
  PAMPA (10^−6 cm/s): 16 10^−6 cm/s
IDH1 R132C
  IDH1 R132C IC50 Fold improvement over 87: 13 fold

## CCc1cccc(CC)c1-n1c(C=C(C)C)c(C(=O)N2CCNCC2)cc(-c2nc(-c3ccc(Cl)cc3)cs2)c1=O [Compound 92, 3-(4-(4-Chlorophenyl)thiazol-2-yl)-1-(2,6-diethylphenyl)-6-(2-methylprop-1-en-1-yl)-5-(piperazine-1-carbonyl)pyridin-2(1H)-one]
IDH1 R132H
  IDH1 R132H IC50 Fold improvement over 87: 4.8 fold
[1]
  PAMPA (10^−6 cm/s): 225 10^−6 cm/s
IDH1 R132C
  IDH1 R132C IC50 Fold improvement over 87: 26 fold

## CCc1cccc(CC)c1-n1c(CC2CC2)c(C(=O)N2CCNCC2)cc(-c2nc(-c3ccc(Cl)cc3)cs2)c1=O [Compound 93, 3-(4-(4-Chlorophenyl)thiazol-2-yl)-6-(cyclopropylmethyl)-1-(2,6-diethylphenyl)-5-(piperazine-1-carbonyl)pyridin-2(1H)-one]
IDH1 R132H
  IDH1 R132H IC50 Fold improvement over 87: 3.8 fold
[1]
  PAMPA (10^−6 cm/s): 43 10^−6 cm/s
IDH1 R132C
  IDH1 R132C IC50 Fold improvement over 87: 31 fold

## CCc1cccc(CC)c1-n1c(C=C(C)C)c(C(=O)N2CCNCC2C)cc(-c2nc(-c3ccc(Cl)cc3)cs2)c1=O (stereo not drawn) [Compound 100, 3-(4-(4-Chlorophenyl)thiazol-2-yl)-1-(2,6-diethylphenyl)-5-(2-methylpiperazine-1-carbonyl)-6-(2-methylprop-1-en-1-yl)pyridin-2(1H)-one]
[1]
  PAMPA (10^−6 cm/s): 40 10^−6 cm/s

## CCc1cccc(CC)c1-n1c(C=C(C)C)c(C(=O)N2CCNC3(CC3)C2)cc(-c2nc(-c3ccc(Cl)cc3)cs2)c1=O [Compound 103, 3-(4-(4-Chlorophenyl)thiazol-2-yl)-1-(2,6-diethylphenyl)-6-(2-methylprop-1-en-1-yl)-5-(4,7-diazaspiro[2.5]octane-7-carbonyl)pyridin-2(1H)-one]
[1]
  PAMPA (10^−6 cm/s): 48 10^−6 cm/s

## CCc1cccc(CC)c1-n1c(C=C(C)C)c(C(=O)N2CCNC(=O)C2)cc(-c2nc(-c3ccc(Cl)cc3)cs2)c1=O [Compound 105, 4-(5-(4-(4-Chlorophenyl)thiazol-2-yl)-1-(2,6-diethylphenyl)-2-(2-methylprop-1-en-1-yl)-6-oxo-1,6-dihydropyridine-3-carbonyl)piperazin-2-one]
[1]
  PAMPA (10^−6 cm/s): 275 10^−6 cm/s

## CCc1cccc(CC)c1-n1c(C=C(C)C)c(C(=O)N2CCNC(C(=O)O)C2)cc(-c2nc(-c3ccc(Cl)cc3)cs2)c1=O (stereo not drawn) [Compound 108, 4-(5-(4-(4-Chlorophenyl)thiazol-2-yl)-1-(2,6-diethylphenyl)-2-(2-methylprop-1-en-1-yl)-6-oxo-1,6-dihydropyridine-3-carbonyl)piperazine-2-carboxylic acid]
[1]
  PAMPA (10^−6 cm/s): <1 10^−6 cm/s

## CCc1cccc(CC)c1-n1c(C=C(C)C)c(C(=O)N2C[C@H]3CC[C@@H](C2)N3)cc(-c2nc(-c3ccc(Cl)cc3)cs2)c1=O [Compound 111, 5-((1R,5S)-3,8-Diazabicyclo[3.2.1]octane-3-carbonyl)-3-(4-(4-chlorophenyl)thiazol-2-yl)-1-(2,6-diethylphenyl)-6-(2-methylprop-1-en-1-yl)pyridin-2(1H)-one]
[1]
  PAMPA (10^−6 cm/s): 89 10^−6 cm/s

## CCc1cccc(CC)c1-n1c(C=C(C)C)c(C(=O)N2C3CCC2CNC3)cc(-c2nc(-c3ccc(Cl)cc3)cs2)c1=O [Compound 112, 5-(3,8-Diazabicyclo[3.2.1]octane-8-carbonyl)-3-(4-(4-chlorophenyl)thiazol-2-yl)-1-(2,6-diethylphenyl)-6-(2-methylprop-1-en-1-yl)pyridin-2(1H)-one]
[1]; PAMPA, 30 min, 0.05 mM
  PAMPA (10^−6 cm/s): 99 10^−6 cm/s

## CC(C)=Cc1c(C(=O)N2CCNCC2)cc(-c2nc(-c3ccc(Cl)cc3)cs2)c(=O)n1-c1ccccc1 [Compound 113, 3-(4-(4-Chlorophenyl)thiazol-2-yl)-6-(2-methylprop-1-en-1-yl)-1-phenyl-5-(piperazine-1-carbonyl)pyridin-2(1H)-one]
IDH1 R132H; relative to 92
  fold drop in R132H potency: 7.5 fold
IDH1 R132C; relative to 92
  fold drop in R132C potency: 55 fold
